Measured values: patent US20230406840A1, “N-(2-(3-CYANO-2-AZABICYCLO[3.1.0]HEXAN-2-YL)-2-OXOETHYL)QUINOLINE-4-CARBOXAMIDES” (AstraZeneca AB, priority 2022, published 2023)
pIC50: −log10 of the molar value.

Tests used:
hFAP = hFAP (Homo sapiens (Human), UniProt Q12884);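 further: fluorescence read after incubating enzyme with substrate at room temperature, IC50 fitted from percent inhibition against log concentration with a one-site model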
Protocol: Compounds were tested in a biochemical inhibition assay using hFAP enzyme at 0.24 nM FAC (Proteros, 38-760 (PR-0071)) and the substrate Ala-Pro-AMC (ARI-3144) at 20 μM FAC. 384 low volume black plates (Greiner #784076) were used. 4 μL, 0.48 nM enzyme solution (100 mM Tris HCl, 100 mM NaCl, 0.05% Chaps, pH 7.4) was added to 40 nL compounds (in DMSO) at 10 CR, 3-fold dilution series from 50 μM FAC. Plates were incubated for 15 min at rt in dark. 4 μL, 40 μM substrate solution (100 mM Tris HCl, 100 mM NaCl, 0.05% Chaps, pH 7.4) was added to each well. Plates were centrifuged at 1000 rpm and incubated for 30 min at rt in dark. The plates were read on a PHERAstar® reader with excitation 340 nm and emission 460 nm. Data were analyzed in Genedata Screener®. IC50 values were determined by plotting % inhibition versus log compound concentration and using a one site dose response model.

[1] = biological target: Prolyl Oligopeptidase (hPREP) (Homo sapiens (Human), UniProt P48147); test: hPREP inhibition assay; format: biochemical; conditions: hPREP 0.6 nM, Z-Gly-Pro-amino-methylcoumarin 50 μM; read-out: PREP IC50
Summary of the method: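 Recombinant human PREP at 0.6 nM final, with Z-Gly-Pro-AMC substrate at 50 μM final. Buffer: 25 mM Tris HCl pH 7.5, 250 mM NaCl, 0.01% Triton X-100, 5 mM glutathione. Incubated 20 min at rt in the dark; fluorogenic AMC release read.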

FAP Human Plasma = FAP Human Plasma (Homo sapiens (Human), UniProt Q12884); test: FAP plasma inhibition assay, human plasma; format: biochemical; conditions: human plasma dilution 1:40, Ala-Pro-AMC 75 μM; n = 1
Protocol: (§1) This assay was adapted from the method described in Example 53 for detection of FAP target engagement enzyme activity in plasma. Plasma (anticoagulant K2EDTA) was used as the enzyme source: Human plasma (Pooled from AZ Biobank) and Mouse plasma (AZ AST Biobank). 384-Well black fluotrack PS plates (Greiner 781076) were used. 20 μL diluted plasma (Human plasma dilution 1:40, Mouse plasma dilution 1:67) in buffer (PBS, 0.1% BSA) was added to 0.6 μL compounds (in DMSO). Compounds were tested using 10 CR, 3-fold dilution series from 500 nM FAC. Two replicates for each assay point were run on the same plate. A fluorescence blank read was taken before substrate addition. Substrate, Ala-Pro-AMC (ARI-3144) stock solution (20 mM in DMSO) was diluted in buffer (PBS, 0.1% BSA) to 150 μM concentration and 20 μL added giving 75 μM FAC. Plates were incubated for 40 min at rt in the dark. The plates were read on a Beckman Paradigm® reader with excitation 360 nm and emission 465 nm. Data were analyzed in Excel (IDBS XLfit Add-In) using a one site dose response model (4-parameter logistic fit). […] Raw data signals were normalized using 1.5% DMSO in diluted plasma as 0% control and 1.5% DMSO in buffer (no plasma) as 100% inhibitor control.

[2] = biological target: human Fibroblast activation protein alpha (hFAP) (Homo sapiens (Human), UniProt Q12884); test: hFAP inhibition assay (tight binders); format: biochemical; conditions: tight-binder format, Ala-Pro-AMC 20 μM, 2.5 h incubation; n = 1 or geometric mean (n = 5-10)
Protocol: Data were analyzed in Genedata Screener®.

[3] = biological target: FAP enzyme activity in mouse plasma (Mus musculus (Mouse), UniProt P97321); test: FAP target engagement enzyme activity in mouse plasma after oral dosing; conditions: male C57Bl/6 mice, single oral dose 3 or 10 mg/kg; estimated from plasma exposure vs FAP activity, Imax fixed to 1; read-out: In vivo Mouse IC50
Protocol: The effect of test compound on FAP enzyme activity in mouse plasma was evaluated in an enzymatic assay using the Fibroblast Activation Protein alpha (FAP) specific fluorogenic substrate dipeptide-Coumarin, Ala-Pro-AMC, (ARI-3144). In this assay, FAP cleaves Ala-Pro-AMC to release free AMC which is measured as a fluorescent signal that correlates with enzyme activity.
Male C57Bl/6 mice (Charles River, Germany), 8 weeks of age, were single housed in a temperature-controlled room with a 12-hour light/dark cycle (06:00-18:00 light). The mice had ad libitum access to water and rodent chow diet (R70, Lactamin, Kimstad, Sweden), and were acclimated for 5 days upon arrival. After acclimation, all mice received a single oral dose of test compound (3 or 10 mg/kg). Blood samples for whole blood compound exposure measurements were taken at 0.25, 0.5, 1, 2, 4, 8 and 24 h post oral dosing. Samples were collected in EDTA capillary tubes (20 μL, K2E, REF 19.447) and were transferred to a 96-deep well plate (NUNC, Thermo Discher Scientific) and stored at −20° C. until further analyses were performed. […]
Recombinant human FAP (PB-17-1837, construct PL-17-0278, cd33-FAP (27-757)-6His, Mw85926 Da) was used as a standard for this assay. […] The plates were read on a Beckman Paradigm reader with excitation 360 nm and emission 465 nm. Fluorescence measurements were performed with kinetic read every 5 minutes for 60 min at room temperature. Data were analyzed in Excel (IDBS XLfit Add-In) using a Linear Regression (y=k*x+m) model to prepare a human recombinant FAP standard curve.
On the day of the assay, plasma was diluted (1:2) to 20 μL volume in buffer (PBS, 0.1% BSA) and 7.5 μL was transferred to the assay plate (384-well black, fluotrack PS, Greiner 781076). […] The plates were read on a Beckman Paradigm reader with excitation 360 nm and emission 465 nm. Fluorescence measurements were performed with kinetic read every 5 minutes for 60 minutes at room temperature. As noted above, FAP cleaves Ala-Pro-AMC to release free AMC which is measured as a fluorescent signal. […]

FAP Mouse Plasma = FAP Mouse Plasma (Mus musculus (Mouse), UniProt P97321); test: FAP plasma inhibition assay, mouse plasma; format: biochemical; conditions: mouse plasma dilution 1:67, Ala-Pro-AMC 75 μM; n = 1
Protocol: as §1

[4] = Metabolic stability in human liver microsomes (HLM); format: in vitro ADME
Protocol: Metabolic stability in HLM was measured as described in J Comput Aided Mol Des 2015, 29, 795.

Kinetic solubility = format: physicochemical; conditions: kinetic from dmso stock
Protocol: Kinetic solubility was measured as described in Comput Aided Mol Des 2015, 29, 795.

Rat Hepatocytes (rHep) = test: Metabolic stability in rat hepatocytes (rHep); format: in vitro ADME
Protocol: Metabolic stability in rat hepatocytes was measured as described in J Comput Aided Mol Des 2015, 29, 795.

Human Hepatocytes (hHep) = test: Metabolic stability in human hepatocytes (hHep); format: in vitro ADME
Protocol: Metabolic stability in human hepatocytes was measured as described in Xenobiotica 2010, 40, 637.

[5] = biological target: human dipeptidylpeptidase 7 (hDPP7) (Homo sapiens (Human), UniProt Q9UHL4); test: hDPP7 inhibition assay; format: biochemical; conditions: highest compound concentration 10 μM; n = 1
Protocol: Compounds were tested in a biochemical inhibition assay using human dipeptidylpeptidase 7 (hDPP7) enzyme (BPS Bioscience, #80070) and the substrate Ala-Pro-amino-methylcoumarin (BPS Bioscience, #80305) at 10 μM FAC. The enzymatic reactions were conducted in duplicate at rt for 20 min in 50 μL assay buffer (10 mM Tris-HCl, pH 7.4, 10 mM MgCl2, 1 mM MnCl2). Compound solutions (in DMSO) at 10 CR, 3-fold dilution series were prepared in assay buffer ten-fold higher than the final concentration, and 5 μL of the dilution was added to a 50 μL reaction so that the highest compound concentration was 10 μM FAC and the concentration of DMSO was 1% in all wells. The plates were read on a PHERAstarPLUS (BMG) using kinetic mode with excitation 340 nm and emission 460 nm. Data were analyzed in Graph Pad Prism. Raw data signals were normalized using 1% DMSO as 0% control and no enzyme as 100% inhibitor control.

[6] = biological target: human dipeptidylpeptidase 9 (hDPP9) (Homo sapiens (Human), UniProt Q86TI2); test: hDPP9 inhibition assay; format: biochemical; conditions: highest compound concentration 10 μM; n = 1
Protocol: Compounds were tested in a biochemical inhibition assay using human dipeptidylpeptidase 9 (hDPP9) enzyme (R&D, #5419-SE-010) and the substrate Gly-Pro-amino-methylcoumarin (Enzo #BML-P189-0005) at 10 μM FAC. The enzymatic reactions were conducted in duplicate at rt for 30 min in 50 μL assay buffer (50 mM Tris, pH 7.5, 0.1% BSA). Compound solutions (in DMSO) at 10 CR, 3-fold dilution series were prepared in assay buffer ten-fold higher than the final concentration, and 5 μL of the dilution was added to a 50 μL reaction so that the highest compound concentration was 10 μM FAC and the concentration of DMSO was 1% in all wells. The plates were read on a PHERAstarPLUS (BMG) using kinetic mode with excitation 340 nm and emission 460 nm. Data were analyzed in Graph Pad Prism. […] Raw data signals were normalized using 1% DMSO as 0% control and no enzyme as 100% inhibitor control.

[7] = biological target: human dipeptidylpeptidase 8 (hDPP8) (Homo sapiens (Human), UniProt Q6V1X1); test: hDPP8 inhibition assay; format: biochemical; conditions: single concentration 10 μM; n = 1
Protocol: Compounds were tested in a biochemical inhibition assay using human dipeptidylpeptidase 8 (hDPP8) enzyme (BPS Bioscience, #80800) and the substrate Gly-Pro-amino-methylcoumarin (Enzo #BML-P189-0005) at 10 μM FAC. The enzymatic reactions were conducted in duplicate at rt for 20 min in 50 μL assay buffer (50 mM Tris, pH 7.5, 0.1% BSA). Compound solutions (in DMSO), were prepared in assay buffer ten-fold higher than the final concentration, and 5 μL of the dilution was added to a 50 μL reaction so that the compound concentration was 10 μM FAC and the concentration of DMSO was 1% in all wells. The plates were read on a PHERAstarPLUS (BMG) using kinetic mode with excitation 340 nm and emission 460 nm. Data were analyzed in Graph Pad Prism. Raw data signals were normalized using 1% DMSO as 0% control and no enzyme as 100% inhibitor control.

Chain of FAP Mouse Plasma (P97321 24-761 limits assumed): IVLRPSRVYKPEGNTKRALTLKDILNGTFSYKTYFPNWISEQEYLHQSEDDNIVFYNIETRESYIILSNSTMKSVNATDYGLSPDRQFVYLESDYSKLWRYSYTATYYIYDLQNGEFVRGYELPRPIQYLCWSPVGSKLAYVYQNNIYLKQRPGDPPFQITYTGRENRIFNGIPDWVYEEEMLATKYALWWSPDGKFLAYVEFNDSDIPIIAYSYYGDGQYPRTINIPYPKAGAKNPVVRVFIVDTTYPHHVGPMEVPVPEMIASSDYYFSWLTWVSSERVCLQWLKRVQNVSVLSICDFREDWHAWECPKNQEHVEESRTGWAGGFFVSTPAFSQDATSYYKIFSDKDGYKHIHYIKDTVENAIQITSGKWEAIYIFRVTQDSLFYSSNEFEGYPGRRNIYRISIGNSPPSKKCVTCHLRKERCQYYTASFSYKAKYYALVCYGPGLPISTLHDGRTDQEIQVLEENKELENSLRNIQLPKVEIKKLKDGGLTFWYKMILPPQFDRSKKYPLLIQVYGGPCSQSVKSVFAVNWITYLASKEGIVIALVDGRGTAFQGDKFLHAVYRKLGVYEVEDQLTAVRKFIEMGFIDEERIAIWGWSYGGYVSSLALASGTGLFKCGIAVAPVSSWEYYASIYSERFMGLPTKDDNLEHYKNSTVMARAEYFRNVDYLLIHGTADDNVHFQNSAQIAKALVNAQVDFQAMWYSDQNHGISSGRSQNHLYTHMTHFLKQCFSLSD
Chain of Prolyl Oligopeptidase (hPREP) (P48147 whole entry): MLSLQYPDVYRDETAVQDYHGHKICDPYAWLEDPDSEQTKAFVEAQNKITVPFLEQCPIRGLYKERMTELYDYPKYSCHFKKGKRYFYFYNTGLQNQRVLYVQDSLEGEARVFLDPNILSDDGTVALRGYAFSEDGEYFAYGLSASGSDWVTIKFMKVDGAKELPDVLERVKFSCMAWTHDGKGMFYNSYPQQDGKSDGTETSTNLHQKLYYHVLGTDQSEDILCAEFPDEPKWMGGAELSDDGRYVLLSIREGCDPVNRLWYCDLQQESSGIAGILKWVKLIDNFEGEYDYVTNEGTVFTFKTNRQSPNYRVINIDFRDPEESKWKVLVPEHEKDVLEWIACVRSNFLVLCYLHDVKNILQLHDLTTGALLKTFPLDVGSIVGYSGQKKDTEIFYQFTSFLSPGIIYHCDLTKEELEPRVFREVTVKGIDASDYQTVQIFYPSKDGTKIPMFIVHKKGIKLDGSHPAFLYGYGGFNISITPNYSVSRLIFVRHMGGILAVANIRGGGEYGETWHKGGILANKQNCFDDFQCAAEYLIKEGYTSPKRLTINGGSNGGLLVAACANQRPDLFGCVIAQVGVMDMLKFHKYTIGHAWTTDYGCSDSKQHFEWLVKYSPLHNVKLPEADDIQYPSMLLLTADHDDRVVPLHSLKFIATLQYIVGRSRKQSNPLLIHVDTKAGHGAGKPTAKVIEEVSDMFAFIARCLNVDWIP
Chain of human Fibroblast activation protein alpha (hFAP) (Q12884 38-760): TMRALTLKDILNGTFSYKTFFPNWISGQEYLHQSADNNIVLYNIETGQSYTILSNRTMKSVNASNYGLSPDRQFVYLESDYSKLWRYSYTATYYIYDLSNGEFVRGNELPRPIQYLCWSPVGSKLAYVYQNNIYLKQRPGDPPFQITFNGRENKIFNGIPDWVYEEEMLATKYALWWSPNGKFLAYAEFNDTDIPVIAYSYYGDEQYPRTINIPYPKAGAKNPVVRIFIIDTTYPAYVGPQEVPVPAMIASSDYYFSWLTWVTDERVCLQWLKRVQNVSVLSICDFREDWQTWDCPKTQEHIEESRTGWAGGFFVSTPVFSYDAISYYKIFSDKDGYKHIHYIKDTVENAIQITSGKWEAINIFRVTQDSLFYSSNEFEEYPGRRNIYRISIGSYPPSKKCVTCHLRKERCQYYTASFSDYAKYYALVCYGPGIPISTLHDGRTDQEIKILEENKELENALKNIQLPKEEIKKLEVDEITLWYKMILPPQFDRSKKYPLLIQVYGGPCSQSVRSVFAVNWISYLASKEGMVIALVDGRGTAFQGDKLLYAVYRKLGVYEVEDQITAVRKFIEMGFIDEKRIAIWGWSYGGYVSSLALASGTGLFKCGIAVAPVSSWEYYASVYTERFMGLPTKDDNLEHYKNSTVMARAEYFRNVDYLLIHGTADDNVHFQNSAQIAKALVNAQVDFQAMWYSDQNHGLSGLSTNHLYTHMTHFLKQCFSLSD
Chain of hFAP (Q12884 38-760): as above
Chain of FAP Human Plasma (Q12884 24-760 limits assumed): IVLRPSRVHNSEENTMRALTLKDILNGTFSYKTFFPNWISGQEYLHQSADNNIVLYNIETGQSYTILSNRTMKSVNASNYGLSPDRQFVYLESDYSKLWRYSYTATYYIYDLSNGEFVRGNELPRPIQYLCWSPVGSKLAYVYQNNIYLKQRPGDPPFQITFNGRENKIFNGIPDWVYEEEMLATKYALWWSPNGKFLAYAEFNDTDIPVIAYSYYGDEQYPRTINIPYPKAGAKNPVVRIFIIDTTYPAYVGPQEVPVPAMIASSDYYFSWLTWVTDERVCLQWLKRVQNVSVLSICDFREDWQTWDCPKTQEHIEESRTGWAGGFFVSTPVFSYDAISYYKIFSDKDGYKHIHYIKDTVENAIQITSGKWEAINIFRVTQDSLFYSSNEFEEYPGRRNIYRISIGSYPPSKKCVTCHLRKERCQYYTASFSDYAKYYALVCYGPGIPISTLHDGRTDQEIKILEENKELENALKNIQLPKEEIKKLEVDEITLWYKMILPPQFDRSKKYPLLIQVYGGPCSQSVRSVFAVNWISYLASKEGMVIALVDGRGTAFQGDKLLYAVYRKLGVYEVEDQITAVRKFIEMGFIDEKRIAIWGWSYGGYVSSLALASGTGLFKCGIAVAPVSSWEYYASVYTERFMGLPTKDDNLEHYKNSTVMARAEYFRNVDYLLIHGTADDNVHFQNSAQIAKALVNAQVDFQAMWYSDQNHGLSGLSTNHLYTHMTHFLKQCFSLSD
Chain of human dipeptidylpeptidase 9 (hDPP9) (Q86TI2 whole entry): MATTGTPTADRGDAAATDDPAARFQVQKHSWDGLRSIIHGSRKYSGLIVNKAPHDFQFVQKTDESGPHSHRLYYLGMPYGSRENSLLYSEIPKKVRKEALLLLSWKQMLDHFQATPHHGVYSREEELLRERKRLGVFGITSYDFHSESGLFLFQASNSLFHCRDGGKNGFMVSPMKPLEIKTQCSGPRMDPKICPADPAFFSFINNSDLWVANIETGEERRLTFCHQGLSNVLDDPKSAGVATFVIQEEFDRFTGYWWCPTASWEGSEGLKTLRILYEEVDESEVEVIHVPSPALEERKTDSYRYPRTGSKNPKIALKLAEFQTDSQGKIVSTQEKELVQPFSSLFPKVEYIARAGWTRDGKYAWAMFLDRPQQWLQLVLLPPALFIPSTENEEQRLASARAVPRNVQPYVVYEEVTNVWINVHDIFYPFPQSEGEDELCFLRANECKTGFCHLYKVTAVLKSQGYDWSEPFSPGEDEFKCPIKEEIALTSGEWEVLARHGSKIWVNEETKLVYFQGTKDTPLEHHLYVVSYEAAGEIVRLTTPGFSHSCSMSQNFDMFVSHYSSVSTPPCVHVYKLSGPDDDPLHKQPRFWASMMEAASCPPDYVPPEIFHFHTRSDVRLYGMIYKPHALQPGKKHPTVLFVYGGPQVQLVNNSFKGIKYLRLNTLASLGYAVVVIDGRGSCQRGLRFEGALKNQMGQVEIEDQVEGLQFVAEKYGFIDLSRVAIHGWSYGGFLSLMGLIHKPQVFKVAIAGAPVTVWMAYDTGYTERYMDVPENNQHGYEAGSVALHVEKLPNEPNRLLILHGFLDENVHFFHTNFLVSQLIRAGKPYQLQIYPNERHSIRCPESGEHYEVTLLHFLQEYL
Chain of FAP enzyme activity in mouse plasma (P97321 24-761 limits assumed): as the sequence (P97321 24-761 limits assumed) above
Chain of human dipeptidylpeptidase 8 (hDPP8) (Q6V1X1 whole entry): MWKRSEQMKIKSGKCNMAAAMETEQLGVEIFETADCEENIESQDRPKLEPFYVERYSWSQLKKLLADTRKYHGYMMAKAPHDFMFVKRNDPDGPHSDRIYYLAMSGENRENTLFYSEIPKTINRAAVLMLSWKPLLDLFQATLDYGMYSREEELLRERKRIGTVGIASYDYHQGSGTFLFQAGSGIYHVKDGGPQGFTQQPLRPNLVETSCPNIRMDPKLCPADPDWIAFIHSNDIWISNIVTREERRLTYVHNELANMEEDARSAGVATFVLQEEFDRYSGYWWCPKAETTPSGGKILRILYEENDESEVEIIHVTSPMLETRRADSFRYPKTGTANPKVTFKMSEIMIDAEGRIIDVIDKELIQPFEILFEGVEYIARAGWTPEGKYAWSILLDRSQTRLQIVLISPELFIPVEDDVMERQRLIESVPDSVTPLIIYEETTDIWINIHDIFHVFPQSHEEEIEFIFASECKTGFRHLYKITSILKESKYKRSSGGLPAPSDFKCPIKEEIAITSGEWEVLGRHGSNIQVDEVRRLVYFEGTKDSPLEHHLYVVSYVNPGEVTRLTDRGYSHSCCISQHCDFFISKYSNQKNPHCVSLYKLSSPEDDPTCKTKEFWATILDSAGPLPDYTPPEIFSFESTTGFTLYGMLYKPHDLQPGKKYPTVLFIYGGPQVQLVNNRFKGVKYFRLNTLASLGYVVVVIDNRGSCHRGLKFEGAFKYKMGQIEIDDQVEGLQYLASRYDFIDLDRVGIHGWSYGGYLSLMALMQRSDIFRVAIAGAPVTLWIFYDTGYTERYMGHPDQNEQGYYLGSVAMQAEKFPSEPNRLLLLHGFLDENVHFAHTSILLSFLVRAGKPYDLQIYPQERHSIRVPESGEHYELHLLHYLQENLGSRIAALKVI

| pIC50 (hFAP) | pIC50 [1] | pIC50 (FAP Human Plasma) | pIC50 [2] | pIC50 [3] | pIC50 (FAP Mouse Plasma) | microsomal CLint [4] [µL/min/mg] | solubility (Kinetic solubility) [µM] | rHeps CLint (Rat Hepatocytes (rHep)) [μL/min/1E6] | hHep CLint (Human Hepatocytes (hHep)) [μL/min/1E6] | pIC50 [5] | pIC50 [6] | hDPP8 Activity at Compound Concentration 10 μM [7] | SMILES |
| --- | --- | --- | --- | --- | --- | --- | --- | --- | --- | --- | --- | --- | --- |
| 9.19 | < 4.30 | 7.89 | 9.74 | 7.68 | 8.15 |  |  |  |  |  |  |  | N#C[C@@H]1C[C@@H]2C[C@@H]2N1C(=O)CNC(=O)c1ccnc2cc(Cl)ccc12 [Example 2, 7-Chloro-N-(2-((1S,3S,5S)-3-cyano-2-azabicyclo[3.1.0]hexan-2-yl)-2-oxoethyl)quinoline-4-carboxamide] |
| 9.09 | 4.92 | 8.44 | 9.48 |  | 8.72 | 9.9 | > 1000 | 7.7 | 1.6 | < 8.00 | < 8.00 | Not Active | N#C[C@@H]1C[C@@H]2C[C@@H]2N1C(=O)CNC(=O)c1ccnc2cc(C(F)(F)F)ccc12 [Example 23, N-(2-((1S,3S,5S)-3-Cyano-2-azabicyclo[3.1.0]hexan-2-yl)-2-oxoethyl)-7-(trifluoromethyl)quinoline-4-carboxamide] |
